Assay results published in patent US7595401B2, “Therapeutic compounds and their use in cancer” (Myriad Pharmaceuticals, Inc., priority 2006, dated 2009).

The compounds below were run on purified human Hsp90 (assay: Binding Assay: fluorescence polarization with BODIPY-labeled geldanamycin). Details: 5 μM compound, BODIPY-GM 10 nM, Hsp90 30 nM.
In short: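 Fluorescence polarization competition with BODIPY-geldanamycin (10 nM final) and human Hsp90 (30 nM final) in HEPES-KOH pH 7.3 buffer with molybdate, NP-40, DTT; 2% DMSO, overnight at room temperature. Read 485/530 nm; percent inhibition from mP normalized to DMSO controls, fluorescent-compound points excluded.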

| % Inhibition at 5 μM Compound Concentration [%] | SMILES |
| --- | --- |
| 0.00 | Cc1cc(=O)oc2cc(Sc3nc4c(N)ncn(CCC5CCN(C=O)CC5)c-4n3)ccc12 [Example 533, 4-(2-{6-Amino-8-[(4-methyl-2-oxo-2 H-chromen-7-yl)thio]-3 H-purin-3-yl}ethyl)piperidine-1-carbaldehyde] |
| 1.00 | COc1cc(Sc2nc3c(N)ncn(CCC4CCN(C=O)CC4)c-3n2)c2ocnc2c1 [Example 535, 4-(2-{6-Amino-8-[(5-methoxy-1,3-benzoxazol-7-yl)thio]-3 H-purin-3-yl}ethyl)piperidine-1-carbaldehyde] |
| 4.00 | COc1cc(Sc2nc3c(N)nc[n+](CCC4CCN(C=O)CC4)c3[nH]2)cc(OC)c1OC [Example 541, 4-(2-{6-Amino-8-[(3,4,5-trimethoxyphenyl)thio]-3 H-purin-3-yl}ethyl)piperidine-1-carbaldehyde] |
| 0.00 | COC(=O)c1ccnc(Sc2nc3c(N)ncn(CCC4CCN(C=O)CC4)c-3n2)c1 [Example 543, Methyl 2-({6-amino-3-[2-(1-formylpiperidin-4-yl)ethyl]-3 H-purin-8-yl}thio)isonicotinate] |
| 12.00 | Cc1ccsc1Sc1nc2c(N)ncn(CCC3CCN(C=O)CC3)c-2n1 [Example 547, 4-(2-{6-Amino-8-[(3-methyl-2-thienyl)thio]-3 H-purin-3-yl}ethyl)piperidine-1-carbaldehyde] |
| 11.00 | CC(=O)Nc1ccc(Sc2nc3c(N)ncn(CCC4CCN(C=O)CC4)c-3n2)c(Cl)c1 [Example 549, N-[4-({6-Amino-3-[2-(1-formylpiperidin-4-yl)ethyl]-3 H-purin-8-yl}thio)-3-chlorophenyl]acetamide] |
| 0.00 | Nc1ncn(CCC2CCN(C=O)CC2)c2nc(Sc3ncccc3Br)nc1-2 [Example 551, 4-(2-{6-Amino-8-[(3-bromopyridin-2-yl)thio]-3 H-purin-3-yl}ethyl)piperidine-1-carbaldehyde] |
| 0.00 | Nc1ncn(CCC2CCN(C=O)CC2)c2nc(Sc3cc(OCc4ccccc4)c(OCc4ccccc4)cc3Br)nc1-2 [Example 554, 4-[2-(6-Amino-8-{[4,5-bis (benzyloxy)-2-bromophenyl]thio}-3 H-purin-3-yl)ethyl]piperidine-1-carbaldehyde] |
| 1.00 | COc1cc(Br)c(Sc2nc3c(N)ncn(CCC4CCN(C(C)=O)CC4)c-3n2)cc1OC [Example 566, 3-[2-(1-Acetylpiperidin-4-yl)ethyl]-8-[(2-bromo-4,5-dimethoxyphenyl)thio]-3 H-purin-6-amine] |
| 0.00 | COc1ccc(Sc2nc3c(N)ncn(CCC4CCN(C(C)=O)CC4)c-3n2)cc1F [Example 568, 3-[2-(1-Acetylpiperidin-4-yl)ethyl]-8-[(3-fluoro-4-methoxyphenyl)thio]-3 H-purin-6-amine] |

Same assay, conditions: BODIPY-GM 10 nM, Hsp90 30 nM

| SMILES | IC50 [µM] |
| --- | --- |
| COc1cc(Sc2nc3c(N)ncnc3n2CCC2CCN(C=O)CC2)cc(OC)c1OC [Example 540, 4-(2-{6-Amino-8-[(3,4,5-trimethoxyphenyl)thio]-9 H-purin-9-yl}ethyl)piperidine-1-carbaldehyde] | > 5 |
| COC(=O)c1ccnc(Sc2nc3c(N)ncnc3n2CCC2CCN(C=O)CC2)c1 [Example 542, Methyl 2-({6-amino-9-[2-(1-formylpiperidin-4-yl)ethyl]-9 H-purin-8-yl}thio)isonicotinate] | > 5 |
| Cc1ccsc1Sc1nc2c(N)ncnc2n1CCC1CCN(C=O)CC1 [Example 546, 4-(2-{6-Amino-8-[(3-methyl-2-thienyl)thio]-9 H-purin-9-yl}ethyl)piperidine-1-carbaldehyde] | > 5 |
| CC(=O)Nc1ccc(Sc2nc3c(N)ncnc3n2CCC2CCN(C=O)CC2)c(Cl)c1 [Example 548, N-[4-({6-Amino-9-[2-(1-formylpiperidin-4-yl)ethyl]-9 H-purin-8-yl}thio)-3-chlorophenyl]acetamide] | > 5 |
| Nc1ncnc2c1nc(Sc1ncccc1Br)n2CCC1CCN(C=O)CC1 [Example 550, 4-(2-{6-Amino-8-[(3-bromopyridin-2-yl)thio]-9 H-purin-9-yl}ethyl)piperidine-1-carbaldehyde] | > 5 |
| Nc1ncnc2c1nc(Sc1cc(OCc3ccccc3)c(OCc3ccccc3)cc1Br)n2CCC1CCN(C=O)CC1 [Example 553, 4-[2-(6-Amino-8-{[4,5-bis (benzyloxy)-2-bromophenyl]thio}-9 H-purin-9-yl)ethyl]piperidine-1-carbaldehyde] | > 5 |
| COc1cc(Sc2nc3c(N)ncnc3n2CCC2CCN(C=O)CC2)c(OC)cc1Cl [Example 558, 4-(2-{6-Amino-8-[(4-chloro-2,5-dimethoxyphenyl)thio]-9 H-purin-9-yl}ethyl)piperidine-1-carbaldehyde] | > 5 |
| COc1cc(F)c(Sc2nc3c(N)ncnc3n2CCC2CCN(C(C)=O)CC2)cc1F [Example 559, 9-[2-(1-Acetylpiperidin-4-yl)ethyl]-8-[(2,5-difluoro-4-methoxyphenyl)thio]-9 H-purin-6-amine] | > 5 |
| CC(=O)N1CCC(CCn2c(Sc3cc(F)c(F)cc3Br)nc3c(N)ncnc32)CC1 [Example 560, 9-[2-(1-Acetylpiperidin-4-yl)ethyl]-8-[(2-bromo-4,5-difluorophenyl)thio]-9 H-purin-6-amine] | > 5 |
| CC(=O)N1CCC(CCn2c(Sc3ccc4c(c3)OCO4)nc3c(N)ncnc32)CC1 [Example 561, 9-[2-(1-Acetylpiperidin-4-yl)ethyl]-8-(1,3-benzodioxol-5-ylthio)-9 H-purin-6-amine] | > 5 |
| COc1cc(Sc2nc3c(N)ncnc3n2CCC2CCN(C(C)=O)CC2)c(OC)cc1Cl [Example 563, 9-[2-(1-Acetylpiperidin-4-yl)ethyl]-8-[(4-cloro-2,5-dimethoxyphenyl)thio]-9 H-purin-6-amine] | > 5 |
| COc1cc(Br)c(Sc2nc3c(N)ncnc3n2CCC2CCN(C(C)=O)CC2)cc1OC [Example 565, 9-[2-(1-Acetylpiperidin-4-yl)ethyl]-8-[(2-bromo-4,5-dimethoxyphenyl)thio]-9 H-purin-6-] | > 5 |
| COc1ccc(Sc2nc3c(N)ncnc3n2CCC2CCN(C(C)=O)CC2)cc1F [Example 567, 9-[2-(1-Acetylpiperidin-4-yl)ethyl]-8-[(3-fluoro-4-methoxyphenyl)thio]-9 H-purin-6-amine] | > 5 |
| COc1c(F)cc(Sc2nc3c(N)ncnc3n2CCC2CCN(C(C)=O)CC2)cc1Cl [Example 569, 9-[2-(1-Acetylpiperidin-4-yl)ethyl]-8-[(3-chloro-5-fluoro-4-methoxyphenyl)thio]-9 H-purin-6-amine] | > 5 |

The next lines start with the values.

| IC50 [µM] | SMILES |
| --- | --- |
| 2.5 | CC(=O)N1CCC(CCn2c(Sc3cc(Br)c4c(c3)CCO4)nc3c(N)ncnc32)CC1 [Example 530, 9-[2-(1-Acetylpiperidin-4-yl)ethyl]-8-[(7-bromo-2,3-dihydro-1-benzofuran-5-yl)thio]-9 H-purin-6-amine] |
| 5 | Cc1cc(=O)oc2cc(Sc3nc4c(N)ncnc4n3CCC3CCN(C=O)CC3)ccc12 [Example 532, 4-(2-{6-Amino-8-[(4-methyl-2-oxo-2 H-chromen-7-yl)thio]-9 H-purin-9-yl}ethyl)piperidine-1-carbaldehyde] |
| 5 | COc1cc(Sc2nc3c(N)ncnc3n2CCC2CCN(C=O)CC2)c2ocnc2c1 [Example 534, 4-(2-{6-Amino-8-[(5-methoxy-1,3-benzoxazol-7-yl)thio]-9 H-purin-9-yl}ethyl)piperidine-1-carbaldehyde] |
| > 5 | COc1ccc([N+](=O)[O-])cc1Sc1nc2c(N)ncnc2n1CCC1CCN(C=O)CC1 [Example 536, 4-(2-{6-Amino-8-[(2-methoxy-5-nitrophenyl)thio]-9 H-purin-9-yl}ethyl)piperidine-1-carbaldehyde] |
| > 5 | COc1ccc([N+](=O)[O-])cc1Sc1nc2c(N)ncn(CCC3CCN(C=O)CC3)c-2n1 [Example 537, 4-(2-{6-Amino-8-[(2-methoxy-5-nitrophenyl)thio]-3 H-purin-3-yl}ethyl)piperidine-1-carbaldehyde] |
| 1.6 | COc1ccnc(Sc2nc3c(N)ncnc3n2CCC2CCN(C=O)CC2)c1 [Example 538, 4-(2-{6-Amino-8-[(4-methoxypyridin-2-yl)thio]-9 H-purin-9-yl}ethyl)piperidine-1-carbaldehyde] |
| > 5 | Nc1ncnc2c1nc(Sc1ccc3occc3c1)n2CCC1CCN(C=O)CC1 [Example 539, 4-{2-[6-Amino-8-(1-benzofuran-5-ylthio)-9 H-purin-9-yl]ethyl}piperidine-1-carbaldehyde] |
| 1.4 | COc1cc(Sc2nc3c(N)ncnc3n2CCC2CCN(C=O)CC2)ncn1 [Example 544, 4-(2-{6-Amino-8-[(6-methoxypyrimidin-4-yl)thio]-9 H-purin-9-yl}ethyl)piperidine-1-carbaldehyde] |
| 0.05 | Nc1ncnc2c1nc(Sc1cc3c(cc1Br)OCCO3)n2CCC1CCN(C=O)CC1 [Example 545, 4-(2-{6-Amino-8-[(7-bromo-2,3-dihydro-1,4-benzodioxin-6-yl)thio]-9 H-purin-9-yl}ethyl)piperidine-1-carbaldehyde] |
| 0.7 | Nc1ncnc2c1nc(Sc1ccc3c(c1)CCC3=O)n2CCC1CCN(C=O)CC1 [Example 555, 4-(2-{6-Amino-8-[(1-oxo-2,3-dihydro-1 H-inden-5-yl)thio]-9 H-purin-9-yl}ethyl)piperidine-1-carbaldehyde] |
| 2 | COc1c(Sc2nc3c(N)ncnc3n2CCC2CCN(C=O)CC2)cc(C)c2c1CCC2 [Example 556, 4-(2-{6-Amino-8-[(4-methoxy-7-methyl-2,3-dihydro-1 H-inden-5-yl)thio]-9 H-purin-9-yl}ethyl)piperidine-1-carbaldehyde] |
| 1.5 | COc1ccc(OC)c(Sc2nc3c(N)ncnc3n2CCC2CCN(C(C)=O)CC2)c1 [Example 557, 9-[2-(1-Acetylpiperidin-4-yl)ethyl]-8-[(2,5-dimethoxyphenyl)thio]-9 H-purin-6-amine] |
